According to patent publication EP0061907A1, “Secondary amines, their preparation, pharmaceutical compositions containing them and their use” (BEECHAM GROUP PLC, priority 1981, dated 1982):

Experiments:
Assay type in all cases: in vivo
Female CFLP mice = assay: Hypoglycaemic activity: blood glucose curve after subcutaneous glucose load in fasted mice; details: 2 hour period after glucose 1 g/kg s.c., compared with control mice given water
Description: Female CFLP mice, weighing approx. 25 g, were fasted for 24 hours prior to the study. The compounds under study were administered orally as an aqueous solution to each of 6 mice. 30 Minutes later a blood sample ([…]) was obtained from the tail for the analysis of blood glucose. Immediately after taking the blood sample, glucose (1 g/kg body weight) was administered subcutaneously to each mouse. 6 Mice were given water as a control. Blood samples were then obtained from each mouse at 30 minute intervals for 120 minutes. Compounds that produced a significant (P<0.05) reduction on blood glucose, compared with control mice given water, at any time interval, were considered active. The area under the blood glucose curve over the 2 hour period after the administration of the glucose was calculated for each compound and compared with the value for control animals.

genetically obese mice = assay: Anti-obesity activity: carcass lipid of genetically obese mice after daily oral dosing for 28 days
Description: The compounds were administered by oral gavage in water or carboxymethyl-cellulose suspension to genetically obese mice daily for 28 days. At the end of the time the carcass composition was determined.

Male CFLP mice = assay: Platelet aggregation inhibition activity: response of blood platelet concentration to intravenous collagen in mice; details: two hours before intravenous collagen
Description: Male CFLP mice (ca 20g, n=11 or 12) were dosed orally with compound or vehicle (controls) after an overnight fast. Two hours later each mouse received an intravenous dose of collagen ([…], pH 6-6.6). Exactly 30 sec. after injection of collagen, each mouse was placed in a chamber of C02 until respiration ceased. […] Each concentration was expressed as a per cent of that obtained in a tail blood sample taken immediately before injection of collagen.

rat ear = assay: Anti-inflammatory activity: croton oil induced inflammation of the rat ear; details: topical in irritant vehicle, ear weight after 6 hours, active = significant (5% level) reduction in ear weight vs non-drug treated control
Description: The method used is based on that described by G. Tonelli et al (Endocrinology, 77, 625-634, 1965). An inflammation is induced in the rat ear by the application of 50 µl of a 1% solution of croton oil in tetrahydrofuran, test compounds being dissolved in the irritant vehicle. After 6 hours the inflammation is assessed by killing the animals and weighing the ears. Topical anti-inflammatory activity of a compound is generally considered to be shown when a significant (5% level) reduction in ear weight is seen compared to non-drug treated control.

In the case of `CNCc1ccc(C[C@@H](C)NC[C@H](O)c2cccc(C(F)(F)F)c2)cc1` (racemic) [Example 15, (RR,SS) N-(2-(4-N'-Methylaminomethylphenyl)-1-methylethyl)-2-hydroxy-2-(3-trifluoromethylphenyl) ethanamine], the “REDUCTION IN AREA UNDER BLOOD GLUCOSE CURVE (%)” value (Female CFLP mice; 2.5 µ mol/kg orally) is reported as 19%.
In the case of `CNCc1ccc(C[C@@H](C)NC[C@H](O)c2cccc(Cl)c2)cc1` (racemic) [Example 16, (RR,SS) N-(2-(4-N'-Methylaminomethylphenyl)-1-methylethyl) -2-hydroxy-2-(3-chlorophenyl) ethanamine], the “REDUCTION IN AREA UNDER BLOOD GLUCOSE CURVE (%)” value (Female CFLP mice; 2.5 µ mol/kg orally) is reported as 33% and the “g LIPID/MOUSE TREATED” value (genetically obese mice; 11.3 mg/kg p.o. daily for 28 days, control 22.55) is reported as 16.03 g.
For `CC(=O)Oc1ccccc1C(=O)O` [Aspirin, reference compound], the “% Inhibition of re-sponse to collagen” value (Male CFLP mice; 600(108) µmol(mg)/kg p.o.) was 29 p<0.05%.
For `CC(Cc1ccc(CN)cc1)NCC(O)c1ccccc1` (stereo not shown) [Example 1, N-(2-(4-Aminomethylphenyl)-1-methylethyl)-2-hydroxy-2-phenylethanamine], the “REDUCTION IN AREA UNDER BLOOD GLUCOSE CURVE (%)” value (Female CFLP mice; 2.5 µ mol/kg orally) was 29% and the “g LIPID/MOUSE TREATED” value (genetically obese mice; 6.25 mg/kg p.o. daily for 28 days, control 21.52) was 17.98 g.
In the case of `CC(Cc1ccc(CN)cc1)NCC(O)c1cccc(C(F)(F)F)c1` (stereo not shown) [Example 2, N-(2-(4-Aminomethylphenyl)-1-methylethyl)-2-hydroxy-2-(3-trifluoromethylphenyl) ethanamine], the ACTIVITY (rat ear; 0.5 mg/rat ear) is reported as “Active”, the “% Inhibition of re-sponse to collagen” value (Male CFLP mice; 10 µmol/kg p.o.) is reported as 29 p<0.01% and the “REDUCTION IN AREA UNDER BLOOD GLUCOSE CURVE (%)” value (Female CFLP mice; 2.5 µ mol/kg orally) is reported as 24%. For the same compound, the “g LIPID/MOUSE TREATED” value (genetically obese mice; 11.8 mg/kg p.o. daily for 28 days, control 25.09) was 20.87 g.
For `CNCc1ccc(CC(C)NCC(O)c2cccc(C(F)(F)F)c2)cc1` (stereo not shown) [Example 3, N-(2-(4-N'-Mcthylaminomethylphenyl)-1-methylethyl)-2-hydroxy-2-(3-trifluoromethylphenyl) ethanamine], the “% Inhibition of re-sponse to collagen” value (Male CFLP mice; 10 µmol/kg p.o.) was 25 p<0.02% and the “g LIPID/MOUSE TREATED” value (genetically obese mice; 12.2 mg/kg p.o. daily for 28 days, control 20.98) was 18.56 g.
`CC(Cc1ccc(CN(C)C)cc1)NCC(O)c1cccc(C(F)(F)F)c1` (stereo not shown) [Example 4, N-(2-(4-N'N'-Dimethylaminomethylphenyl)-1-methylethyl)-2-hydroxy-2-(3-trifluoromethylphenyl) ethanamine] was tested, and the “REDUCTION IN AREA UNDER BLOOD GLUCOSE CURVE (%)” value (Female CFLP mice; 12.5 µ mol/kg orally) was 31%.
For `CC(Cc1ccc(CN)cc1)NCC(O)c1cccc(Cl)c1` (stereo not shown) [Example 6, N-(2-(4-Aminomethylphenyl}-1-methylethyl)-2-hydroxy-2-(3-chlorophenyl) ethanamine], the “g LIPID/MOUSE TREATED” value (genetically obese mice; 10.9 mg/kg p.o. daily for 28 days, control 18.75) was 17.38 g.
In the case of `CNCc1ccc(CC(C)NCC(O)c2ccccc2)cc1` (stereo not shown) [Example 7, N-(2-(4-N'-Methylaminomethylphenyl)-1-methylethyl)-2-hydroxy-2-phenylethanamine], the “g LIPID/MOUSE TREATED” value (genetically obese mice; 9.9 mg/kg p.o. daily for 28 days, control 23.13) is reported as 20.56 g.
For `CNCc1ccc(CC(C)NCC(O)c2cccc(Cl)c2)cc1` (stereo not shown) [Example 8, N-(2-(4-N'-Methylaminomethylphenyl)-1-methylethyl)-2-hydroxy-2-(3-chlorophenyl) ethanamine], the ACTIVITY (rat ear; 2 mg/rat ear) was “Active”, the “% Inhibition of re-sponse to collagen” value (Male CFLP mice; 10 µmol/kg p.o.) was 37 p<0.001% and the “REDUCTION IN AREA UNDER BLOOD GLUCOSE CURVE (%)” value (Female CFLP mice; 12.5 µ mol/kg orally) was 52%.
In the case of `CNCc1ccc(CC(C)NCC(O)c2cccc(F)c2)cc1` (stereo not shown) [Example 9, N-(2-(4-N'-Methylaminomethylphenyl)-1-methylethyl)-2-hydroxy-2-(3-fluorophenyl) ethanamine], the “g LIPID/MOUSE TREATED” value (genetically obese mice; 10.8 mg/kg p.o. daily for 28 days, control 22.95) is reported as 20.63 g.
In the case of `CCc1cccc(C(O)CNC(C)Cc2ccc(CNC)cc2)c1` (stereo not shown) [Example 10, N-(2-(4-N'Methylaminomethylphenyl)-1-methylethly)-2-hdroxy-2-(3-ethylphenyl) ethanamine], the “REDUCTION IN AREA UNDER BLOOD GLUCOSE CURVE (%)” value (Female CFLP mice; 100.0 µ mol/kg orally) is reported as 49%.
With `CNCc1ccc(CC(C)NCC(O)c2cccc(Br)c2)cc1` (stereo not shown) [Example 12, N-(2-(4-N'-Methylaminomethylphenyl)-1-methylethyl)-2-hydroxy-2-(3-bromophenyl) ethanamine] the “REDUCTION IN AREA UNDER BLOOD GLUCOSE CURVE (%)” value (Female CFLP mice; 2.5 µ mol/kg orally) was 37% and the “g LIPID/MOUSE TREATED” value (genetically obese mice; 12.5 mg/kg p.o. daily for 28 days, control 24.60) was 20.38 g.
With `CNCCCc1ccc(CC(C)NCC(O)c2cccc(C(F)(F)F)c2)cc1` (stereo not shown) [Example 14, N-(2-(4-(3-N'-Methylaminopropyl)phenyl)-1-methylethyl)-2-hydroxy-2-(3-trifluoromethylphenyl) ethanamine] the “REDUCTION IN AREA UNDER BLOOD GLUCOSE CURVE (%)” value (Female CFLP mice; 12.5 µ mol/kg orally) was 46%.
For `CN[C@@H](C)c1ccc(CC(C)NCC(O)c2cccc(Cl)c2)cc1` (stereo partly drawn) [Example 23, N-(2-(4-(1-(S)-N'-Methylaminoethyl)phenyl)-1-methylethyl)-2-hydroxy-2-(3-chlorophenyl)ethanamine], the “REDUCTION IN AREA UNDER BLOOD GLUCOSE CURVE (%)” value (Female CFLP mice; 50 µ mol/kg orally) was 26%.
In the case of `CN[C@H](C)c1ccc(CC(C)NCC(O)c2cccc(Cl)c2)cc1` (stereo partly drawn) [Example 24, N-(2-(4-(1-(R)-N'-Methylaminoethyl)phenyl)-1-methylethyl) -2-hydroxy-2-(3-chlorophenyl)ethanamine], the “REDUCTION IN AREA UNDER BLOOD GLUCOSE CURVE (%)” value (Female CFLP mice; 50 µ mol/kg orally) is reported as 17%.
For `CNC(C)Cc1ccc(CC(C)NCC(O)c2cccc(Cl)c2)cc1` (stereo not shown) [Example 25, N-(2-(4-(2-N'-Methylaminopropyl)phenyl)-1-methylethyl) -2-hydroxy-2-(3-chlorophenyl)ethanamine], the “REDUCTION IN AREA UNDER BLOOD GLUCOSE CURVE (%)” value (Female CFLP mice; 2.5 µ mol/kg orally) was 41%.
With `CNCCCCCCc1ccc(CC(C)NCC(O)c2cccc(Cl)c2)cc1` (stereo not shown) [Example 26, N-(2-(4-(6-N'-Methylaminohexyl)phenyl)-1-methylethyl)-2-hydroxy-2-(3-chlorophenyl) ethanamine] the “REDUCTION IN AREA UNDER BLOOD GLUCOSE CURVE (%)” value (Female CFLP mice; 2.5 µ mol/kg orally) was 53%.
For `CNCCCCc1ccc(CC(C)NCC(O)c2cccc(Cl)c2)cc1` (stereo not shown) [Example 27, N-(2-(4-(4-N'-Methylaminobutyl)phenyl)-1-methylethyl)-2-hydroxy-2-(3-chlorophenyl) ethanamine], the “REDUCTION IN AREA UNDER BLOOD GLUCOSE CURVE (%)” value (Female CFLP mice; 2.5 µ mol/kg orally) was 10%.
